# Source: PMC7696666, “Epithelial Transfer of the Tyrosine Kinase Inhibitors Erlotinib, Gefitinib, Afatinib, Crizotinib, Sorafenib, Sunitinib, and Dasatinib: Implications for Clinical Resistance” (Cancers, 2020)
# How the values were obtained:
# CaCo2 cells = assay: Intracellular accumulation in CaCo2 Transwell cells at the end of the transport period; format: in vitro ADME, human; conditions: A->B incubation
# Experimental: (§1) In order to get insight in the barrier role of the CaCo2 model system, we determined the intracellular accumulation of the TKISs at the end of the transport period, in normal monolayers of CaCo2 cells and in several other colon cancer cell lines. At the end of the transport period (both from the B->A and A->B incubations), cells were harvested and intracellular accumulation was determined.
# These cells were exposed to 20 μM of a TKI and were harvested after 2 h for determination of TKI concentration with LC-MS-MS. Values are means ± SEM for the number of experiments described in Figure 3, Figure 4, and Figure 5 and from three separate experiments for the monolayer CaCo2 and WiDr cells. […] A->B, mass transport from A to B; B->A, mass transport from B to A. For AFA, CRI, and DAS, no data in WiDr cells were available. […] The bar heights were not read.
# In a different set of experiments, the CaCo2 cells were cultured in 6-wells plates as monolayers until semiconfluency. Two other colon cancer cell lines, WiDr and HT29, were cultured similarly. These cells were exposed for 2 h to various TKIs at concentrations varying from 50 nM to 20 µM). […] At the end of the incubation, cells were harvested, as described earlier, and extracted for drug analysis using LC-MS-MS as described above.
# HT29 cells = assay: Intracellular accumulation in HT29 colon cancer cells; format: in vitro ADME; conditions: after 24 h
# Experimental: as §1
# In a different set of experiments, the CaCo2 cells were cultured in 6-wells plates as monolayers until semiconfluency. Two other colon cancer cell lines, WiDr and HT29, were cultured similarly. […]
# CaCo2 monolayer = assay: CaCo2 Transwell transport (Papp, efflux ratio); format: in vitro ADME, human; conditions: 20 µM
# Experimental: (§2) The Transwell system was developed using the wild type Caco-2 cell line (passage 15–25) cultured in Dulbecco’s […] medium (DMEM) at standard conditions of 37 °C, 5% CO2, and 100% humidity as previously reported. […] To ensure a controlled growth environment the plate was covered with Breathe-Easier cell culture foil during the incubation period. The integrity of the developed monolayer was assessed by TEER before administration of compound solutions and after the final sampling stage.
# (§3) The initial concentration of the drug was verified from a 20 µL sample taken immediately from the donor compartment after drug administration (t = 0).
# (§4) The permeability coefficient (Papp) represents a measure for the efficiency of transport and was calculated with the following equation: Papp=ΔQ/Δt×V/C0⋅A where ∆Q/∆t = the rate of increase in drug concentration (accumulative mass transport) in the receiver compartment over time (µM/s), V = volume in the receiver compartment (mL), C0 = the initial concentration of drug in the donor compartment (µM), and A = the membrane surface area (cm^2).
# (§5) To take into account the slightly nonlinear transfer characteristics of each compound, the rate of increase in drug concentration was determined for each time period and the Papp was then calculated. The average Papp was then determined with units of cm/s × 10^−6 or µm/s.
# (§6) The efflux ratio was calculated according to the equation: Efflux ratio=PappB→A/PappA→B.
# (§7) Statistical significance was determined using a simple Student’s t-test where a p value of <0.05 was considered significant.
# [1] = CaCo2 Transwell transport (Papp, efflux ratio); format: in vitro ADME, human; conditions: human
# Experimental: as §2, §3, §4, §5, §6, §7
# [2] = design: method as in PMID 17429625; conditions: ref [32]; cited from earlier work
# WiDr cells = assay: Growth inhibition of WiDr cells; format: cell-based; conditions: Homo sapiens, 72 hr exposure, read-out: Concentration leading to 50% growth inhibition
# [3] = design: method as in PMID 30544701; conditions: method not given, ref [45], cited from earlier work
structure (smiles),measurement,setting,value
"Cc1nc(Nc2ncc(C(=O)Nc3c(C)cccc3Cl)s2)cc(N2CCN(CCO)CC2)n1 [Dasatinib, dasatinib]",Intracellular accumulation at the end of the transfer period (A->B),CaCo2 cells,1.1 pmol/μg protein
same,Intracellular accumulation in HT29 cells,HT29 cells,0.14 pmol/μg protein
same,Efflux Ratio (Papp B–A / Papp A–B),CaCo2 monolayer,6.0
same,Total amount transferred apical to basolateral in 3 h,"CaCo2 monolayer; A–B, 3 h",499.3 pmol
same,Papp basolateral to apical,CaCo2 monolayer; B–A,20.4 ×10⁻⁶ cm/s
same,Total amount transferred basolateral to apical in 3 h,"CaCo2 monolayer; B–A, 3 h","13,889 pmol"
same,Efflux Ratio (Papp B–A / Papp A–B),CaCo2 monolayer; listed as dasatinib,> 6
same,"efflux ratio at 180 min, 20 µM","[1]; Caco-2, 20 µM, read-out: Efflux Ratio (Papp B–A / Papp A–B)",> 5
same,"Papp A→B at 180 min, 20 µM","[1]; Caco-2, 20 µM, A–B, read-out: Papp (Apical Basolateral)",3.4 ± 3.4 ×10⁻⁶ cm/s
same,"Papp B→A at 180 min, 20 µM","[1]; Caco-2, 20 µM, B–A, read-out: Papp (Basolateral Apical)",20.4 ± 13.5 ×10⁻⁶ cm/s
same,Bioavailability (animal),[2],14–27 [32] (animal) %
same,IC50,WiDr cells,60 nM
same,Log P,[3],2.24
same,Log D (pH 5.5),[3]; pH 5.5,−0.44
same,Log D (pH 7.5),[3]; pH 7.5,2.17
